Measured values taken from article PMC9238401, “Peptide Conjugates Derived from flg15, Pep13, and PIP1 That Are Active against Plant-Pathogenic Bacteria and Trigger Plant Defense Responses” (Applied and Environmental Microbiology, 2022).
Non-standard residues stand in square brackets, D forms with d. Residues, ends and D or L forms follow the SMILES beside them. No end group written: not given here.

Legend:
horse erythrocytes = conditions: TRIS buffer pH 7.2, 1 h, 37°C, absorbance 540 nm, relative to melittin 100 μM, ± confidence interval (α = 0.05)
Method in brief: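 Horse erythrocytes washed in 10 mM Tris, 150 mM NaCl, pH 7.2 were mixed 1:1 with compound solutions at 750, 500, 300 and 100 μM and shaken 1 h at 37°C. Hemoglobin release read at 540 nm in supernatant; % hemolysis relative to buffer and melittin control.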

[1] = HPLC retention time as indicator of relative hydrophobicity; type: physicochemical; conditions: chromatographic, Kromasil 100 C18 (4.6 mm × 40 mm, 3 μm), linear gradient 2 to 100% B over 12 min, 1 mL/min; A 0.1% aqueous TFA, B 0.1% TFA in CH3CN; used as indicator of relative hydrophobicity
Procedure: The parameters related to the structure of the peptide conjugates (sequence, charge, hydrophobic ratio [HR], and HPLC retention time), as well as their physicochemical properties (grand average hydropathicity [GRAVY] and hydrophobic moment [<μH>]) obtained from the online programs ProtParam (Expasy server) and HeliQuest are included in Table 1.
Peptides were analyzed under standard analytical HPLC conditions. Method A: peptides were analyzed with a Dionex liquid chromatography instrument composed of a UV/Vis Dionex UVD170U detector, a P680 Dionex pump, an ASI-100 Dionex automatic injector, and Chromeleon 6.60 software. Detection was performed at a wavelength of 220 nm. Solvent A was 0.1% aqueous trifluoroacetic acid (TFA), and solvent B was 0.1% TFA in CH3CN. Analyses were carried out with a Kromasil 100 C18 (4.6 mm × 40 mm, 3 μm) column with a linear gradient of 2 to 100% B over 7 min at a flow rate of 1 mL/min. Method B: peptides were analyzed with a 1260 Infinity II liquid chromatography instrument (Agilent Technologies) composed of a diode array detector HS, a quaternary pump VL, a 1260 vial sampler, and OpenLab CDS ChemStation software. Analyses were carried out with a Kromasil 100 C18 (4.6 mm × 40 mm, 3 μm) column with a linear gradient of 2 to 100% B over 12 min at a flow rate of 1 mL/min.

tobacco leaves = assay: Effect of peptide infiltration on tobacco leaves (phytotoxicity); type: in vivo
Method in brief: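 Peptide solutions at 50, 150 and 250 μM were infiltrated into the mesophyll of fully expanded tobacco leaves, with at least three leaves per peptide and dose on different plants. Water and equimolar melittin served as controls. Lesion diameter was measured 48 h after infiltration.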

[2] = test system: Pseudomonas syringae pv. syringae EPS94; assay: In vitro growth inhibition (MIC); type: cell-based; conditions: TSB, 25°C, 48 h, OD 600 nm (Bioscreen C), three replicates, experiment repeated twice; MIC given as range
Method in brief: (§1)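 Bacterial suspensions (10^8 CFU mL^−1, from 24 h plates at 25°C) mixed with peptide dilutions in TSB, triplicate wells. OD600 read hourly over 48 h at 25°C with shaking. MIC = lowest concentration with no growth at end of run.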

[3] = test system: Pseudomonas syringae pv. actinidiae Psa3700.1.1; assay: In vitro growth inhibition (MIC); type: cell-based; conditions: TSB, 25°C, 48 h, OD 600 nm (Bioscreen C), three replicates, experiment repeated twice; MIC given as range
Method in brief: as §1

[4] = test system: Erwinia amylovora PMV6076; assay: In vitro growth inhibition (MIC); type: cell-based; conditions: TSB, 25°C, 48 h, OD 600 nm (Bioscreen C), three replicates, experiment repeated twice; MIC = lowest concentration with no growth, given as range
Method in brief: as §1

[5] = test system: Xanthomonas arboricola pv. pruni CFBP5563; assay: In vitro growth inhibition (MIC); type: cell-based; conditions: TSB, 25°C, 48 h, OD 600 nm (Bioscreen C), three replicates, experiment repeated twice; MIC given as range
Method in brief: as §1

[6] = test system: Xanthomonas fragariae Xf349-9A; assay: In vitro growth inhibition (MIC); type: cell-based; conditions: TSB, 25°C, 48 h, OD 600 nm (Bioscreen C), three replicates, experiment repeated twice; MIC given as range
Method in brief: as §1

[7] = test system: plant-pathogenic bacteria (E. amylovora, X. arboricola pv. pruni, X. fragariae, X. axonopodis pv. vesicatoria, P. syringae pv. actinidiae, P. syringae pv. …); conditions: 24 h
[8] = test system: Xanthomonas axonopodis pv. vesicatoria 2133-2; conditions: TSB, 25°C, 48 h, OD 600 nm (Bioscreen C), three replicates, experiment repeated twice; MIC given as range
Method in brief: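 Bacteria grown 24 h (48 h for Xanthomonas axonopodis, X. fragariae) at 25°C, suspended at 10^8 CFU mL^−1, mixed with peptide dilutions in TSB.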

[9] = 100 μL infiltrated into mesophyll, lesion diameter 48 h after infiltration, at least three leaves, ± confidence interval (α = 0.05)

Row | Compound | Percent hemolysis at 50 μM (horse erythrocytes) | Percent hemolysis at 150 μM (horse erythrocytes) | Percent hemolysis at 250 μM (horse erythrocytes) | Percent hemolysis at 375 μM (horse erythrocytes) | tR (min), HPLC retention time (method B) [1] | Size of the lesions in infiltrated tobacco leaves at 50 μM (tobacco leaves; in vivo) | Size of the lesions in infiltrated tobacco leaves at 150 μM (tobacco leaves; in vivo) | Size of the lesions in infiltrated tobacco leaves at 250 μM (tobacco leaves; in vivo) | MIC, Pss [2] | MIC, Psa [3] | MIC, Ea [4] | MIC, Xap [5] | MIC, Xf [6] | MIC against all the bacteria tested (span over the six pathogens) [7] | MIC, Xav [8] | Size of the lesions in infiltrated tobacco leaves at 50 μM (tobacco leaves; [9]) | Size of the lesions in infiltrated tobacco leaves at 150 μM (tobacco leaves; [9]) | Size of the lesions in infiltrated tobacco leaves at 250 μM (tobacco leaves; [9])
1 | CC[C@H](C)[C@H](NC(=O)[C@H](CCCCN)NC(=O)[C@H](CCCCN)NC(=O)[C@@H](Cc1ccccc1)NC(=O)[C@H](CC(C)C)NC(=O)[C@H](CCCCN)NC(=O)[C@@H](N)CCCCN)C(=O)N[C@@H](CC(C)C)C(=O)N[C@@H](CCCCN)C(=O)N[C@@H](Cc1ccc(O)cc1)C(=O)N[C@@H](CC(C)C)C(=O)N[C@H](C(=O)N[C@@H](Cc1c[nH]c2ccccc12)C(=O)N[C@@H](CC(N)=O)C(=O)N[C@@H](CCC(N)=O)C(=O)N1CCC[C@H]1C(=O)N[C@H](C(=O)N[C@@H](CCCNC(=N)N)C(=O)NCC(=O)N[C@@H](Cc1ccccc1)C(=O)N[C@@H](CCCCN)C(=O)N[C@H](C(=O)N[C@@H](Cc1ccc(O)cc1)C(=O)N[C@@H](CCC(=O)O)C(=O)O)C(C)C)C(C)C)C(C)C [BP143-Pep13] (H-KKL[dF]KKILKYLVWNQPVRGFKVYE-OH) | 5 ± 1.9% | 9 ± 0.4% | 16 ± 1.9% | 29 ± 0.9% | 5.62 min | 0.10 ± 0.12 cm | 0.44 ± 0.16 cm | 0.60 ± 0.25 cm | 1.6 to 3.1 µM | 0.8 to 1.6 µM | 1.6 to 3.1 µM | 1.6 to 3.1 µM | 6.2 to 12.5 µM | 0.8 to 12.5 µM | 1.6 to 3.1 µM |  |  | 
2 | CC[C@H](C)[C@H](NC(=O)[C@H](CCCCN)NC(=O)[C@H](CCCCN)NC(=O)[C@@H](Cc1ccccc1)NC(=O)[C@H](CC(C)C)NC(=O)[C@H](CCCCN)NC(=O)[C@H](CCCCN)NC(=O)[C@H](CCC(=O)O)NC(=O)[C@H](Cc1ccc(O)cc1)NC(=O)[C@@H](NC(=O)[C@H](CCCCN)NC(=O)[C@H](Cc1ccccc1)NC(=O)CNC(=O)[C@H](CCCNC(=N)N)NC(=O)[C@@H](NC(=O)[C@@H]1CCCN1C(=O)[C@H](CCC(N)=O)NC(=O)[C@H](CC(N)=O)NC(=O)[C@H](Cc1c[nH]c2ccccc12)NC(=O)[C@@H](N)C(C)C)C(C)C)C(C)C)C(=O)N[C@@H](CC(C)C)C(=O)N[C@@H](CCCCN)C(=O)N[C@@H](Cc1ccc(O)cc1)C(=O)N[C@@H](CC(C)C)C(N)=O [Pep13-BP143] (H-VWNQPVRGFKVYEKKL[dF]KKILKYL-NH2) | 5 ± 0.5% | 8 ± 0.3% | 10 ± 0.6% | 17 ± 0.4% | 5.97 min | 0.16 ± 0.15 cm | 0.52 ± 0.14 cm | 0.62 ± 0.13 cm | 6.2 to 12.5 µM | 3.1 to 6.2 µM | 6.2 to 12.5 µM | 0.8 to 1.6 µM | 3.1 to 6.2 µM | 0.8 to 12.5 µM | 0.8 to 1.6 µM |  |  | 
3 | H-RINSAKDDAAGLQIAKKLFKKILKKL-NH2 [flg15-BP16] | 2 ± 0.1% | 3 ± 0.2% | 4 ± 0.9% | 5 ± 0.3% | 5.89 min |  |  |  | 6.2 to 12.5 µM | 3.1 to 6.2 µM | 3.1 to 6.2 µM | 3.1 to 6.2 µM | 1.6 to 3.1 µM |  | 1.6 to 3.1 µM | 0.20 ± 0.12 cm | 0.49 ± 0.13 cm | 0.42 ± 0.11 cm
4 | H-YGIHTHKKVVFWVKFK-NH2 [PIP1-KSLW] | 7 ± 0.8% | 7 ± 1.1% | 6 ± 0.4% | 6 ± 0.4% | 4.81 min | 0 ± 0 cm | 0.47 ± 0.24 cm | 0.70 ± 0.11 cm | 6.2 to 12.5 µM | 6.2 to 12.5 µM | 12.5 to 25 µM | 3.1 to 6.2 µM | 6.2 to 12.5 µM |  | 3.1 to 6.2 µM |  |  | 
5 | KKLFKKILKKL-RINSAKDDAAGLQIA-OH [BP16-flg15] | 0 ± 0.3% | 1 ± 0.1% | 0 ± 0.6% | 1 ± 0.5% | 4.59 min |  |  |  | 12.5 to 25 µM | 12.5 to 25 µM | > 50 µM | 25 to 50 µM | 12.5 to 25 µM |  | 3.1 to 6.2 µM | 0 ± 0 cm | 0.31 ± 0.10 cm | 0.30 ± 0.09 cm
6 | KKLFKKILKKLVWNQPVRGFKVYE [BP16-Pep13] | 1 ± 0.4% | 1 ± 0.3% | 1 ± 0.5% | 2 ± 0.4% | 5.12 min | 0.23 ± 0.13 cm | 0.45 ± 0.12 cm | 1.02 ± 0.32 cm | 1.6 to 3.1 µM | 1.6 to 3.1 µM | 6.2 to 12.5 µM | 0.8 to 1.6 µM | 1.6 to 3.1 µM | 0.8 to 12.5 µM | 1.6 to 3.1 µM |  |  | 
7 | KKLFKKILKYL-RINSAKDDAAGLQIA-OH [BP100-flg15] | 1 ± 0.9% | 1 ± 0.8% | 3 ± 0.0% | 6 ± 1.6% | 4.96 min |  |  |  | 3.1 to 6.2 µM | 1.6 to 3.1 µM | 6.2 to 12.5 µM | 1.6 to 3.1 µM | 6.2 to 12.5 µM |  | 3.1 to 6.2 µM | 0.10 ± 0.12 cm | 0.28 ± 0.14 cm | 0.36 ± 0.13 cm
8 | KKVVFWVKFK-RINSAKDDAAGLQIA-OH [KSLW-flg15] | 4 ± 1.9% | 7 ± 3.4% | 8 ± 0.9% | 8 ± 2.7% | 4.75 min |  |  |  | > 50 µM | > 50 µM | > 50 µM | > 50 µM | 12.5 to 25 µM |  | 6.2 to 12.5 µM | 0 ± 0 cm | 0.13 ± 0.09 cm | 0.26 ± 0.05 cm
